Measurements as given in patent US20120178742A1, “METABOTROPIC GLUTAMATE RECEPTOR MODULATORS” (MERZ PHARMA GmbH & CO. KGaA, priority 2009, published 2012).

Legend:
[1] = biological target: T1, monoamine oxidase MAO-B (Homo sapiens, UniProt P27338); assay: Inhibition of monoamine oxidase MAO-B; assay type: biochemical; settings: recombinant human enzyme expressed in insect Hi5 cells, 50 uM kynuramine
T1 construct: host or cells: insect Hi5 cells
T1 sequence (P27338 1-520): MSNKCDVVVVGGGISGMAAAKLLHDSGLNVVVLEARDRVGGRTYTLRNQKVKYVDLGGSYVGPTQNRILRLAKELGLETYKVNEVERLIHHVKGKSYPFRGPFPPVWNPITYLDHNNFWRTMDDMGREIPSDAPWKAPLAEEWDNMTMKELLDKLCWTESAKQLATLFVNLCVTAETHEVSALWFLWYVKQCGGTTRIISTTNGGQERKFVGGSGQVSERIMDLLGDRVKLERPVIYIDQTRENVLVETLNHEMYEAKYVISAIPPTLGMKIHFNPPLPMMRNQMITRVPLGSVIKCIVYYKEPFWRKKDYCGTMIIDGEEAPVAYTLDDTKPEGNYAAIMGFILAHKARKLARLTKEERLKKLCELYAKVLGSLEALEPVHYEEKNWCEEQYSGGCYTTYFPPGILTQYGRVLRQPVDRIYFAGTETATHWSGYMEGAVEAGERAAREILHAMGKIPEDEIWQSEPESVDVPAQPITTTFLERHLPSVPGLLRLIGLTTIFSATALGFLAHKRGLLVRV
Method: The inhibition of the enzyme monoamine oxidase MAO-B is tested with an enzyme from recombinant source, namely of the human enzyme expressed in insect Hi5 cells. Following a pre-incubation of the test compounds with the enzyme for 15 minutes at 37° C. in the incubation buffer (100 mM potassium phosphate, pH 7.4), the enzymatic reaction with 50 uM kynuramine is carried out for 60 minutes. The reaction product 4-hydroxyquinoline is quantified by spectrofluorometry. The compound vehicle used for this assay is 1% DMSO.

[2] = biological target: T2, mGluR5 receptors (Rattus norvegicus, UniProt P31424); assay: Cytosolic calcium studies with cultured rat astrocytes; assay type: cell-based
T2 construct: Primary astrocyte cultures are prepared from cortices of newborn rats; endogenous in cells; host or cells: primary rat cortical astrocytes (Sprague-Dawley pups)
Method: Primary astrocyte cultures are prepared from cortices of newborn rats as described by Booher and Sensenbrenner (1972, Neurobiology 2(3):97-105). Briefly, Sprague-Dawley rat pups (2-4 d old) are decapitated and neocortices are dissected, disintegrated with a nylon filter (pore size 80 μm) and carefully triturated. The cell suspension is plated on poly-D-lysine pre-coated flasks (Costar, Netherlands) and cultivated in Dulbecco's Modified Eagle's Medium (DMEM, Invitrogen, Germany) supplemented with 10% foetal calf serum (FCS, Sigma, Germany), 4 mM glutamine and […] gentamycin (both Biochrom, Germany) at 37° C. in a humidified atmosphere of 5% CO2/95% air for 7 days with exchanging the medium at day 2 and 6.
After 7 days in vitro (DIV), cells are shaken overnight at 250 rpm to remove oligodendrocytes and microglia. The next day, astrocytes are rinsed twice with CMF-PBS (calcium- and magnesium-free phosphate buffered saline, Biochrom, Germany), trypsinized and subplated on poly-D-lysine pre-coated 96-well plates (Greiner, Germany) at a density of 40,000 cells/well. 24 h after establishing the secondary culture the astrocytes are rinsed with PBS″ (phosphate buffered saline, Biochrom, Germany) and fed with astrocyte-defined medium (ADM) consisting of DMEM containing 1× G5-supplement (Invitrogen, Germany), 0.5 μg/ml heparan sulfate, and 1.5 μg/ml fibronectin (both Sigma, Germany) (Miller et al., (1993) Brain Res. 618(1):175-8). 3 days later the medium is exchanged and the cells incubated for another 2-3 days, so that at the time of experiments astrocytes are 14-15 DIV.
The increase of cytosolic calcium after stimulation with the mGluR5 agonist L-quisqualate is measured using a fluorometric imaging plate reader (FLIPR) and the Ca-Kit (both Molecular Devices). Prior to addition of agonist or antagonist the medium is aspirated and cells are loaded for 2 h at RT with 150 μl of loading buffer consisting of Ca-sensitive dye reconstituted in sodium chloride (123 mM), potassium chloride (5.4 mM), magnesium chloride (0.8 mM), calcium chloride (1.8 mM), D-glucose (15 mM), and HEPES (20 mM), pH 7.3. Subsequently, plates are transferred to FLIPR to detect calcium increase with the addition of L-quisqualate (100 nM) measured as relative fluorescence units (RFU). If antagonists are tested, these compounds are pre-incubated for 10 minutes at RT before addition of the respective agonist.
Thereafter, concentration-response curves for the positive modulator are performed in the presence of a fixed concentration of quisqualate showing the biggest window for potentiation (normally 10-30 nM).
(§1) The fluorescence signal increase after addition of agonist reflects the increase of cytosolic calcium. Inconsistencies in the amount of cells per well are normalised by using the spatial uniformity correction of the FLIPR operating software Screenworks. The mean of replicated temporal data (n=3-5) is calculated and used for graphical representation. For the evaluation of the pharmacology, the calcium changes in response to different concentrations of agonist or antagonist are determined using a maximum minus minimum (MaxMin) calculation.
(§2) All responses (RFU-values) are determined as percentage of control (=maximum response). EC50 and IC50 are calculated according the logistic equation using Prism 4.0 (GraphPad Software, USA).

[3] = biological target: T3, human metabotropic glutamate receptor mGluR5 (Homo sapiens, UniProt P41594); assay: Cytosolic calcium studies with stably transfected cells (CHO-K1); assay type: cell-based
T3 construct: expressed in transfected cells; host or cells: CHO-K1
Method: Functional Assay of mGluR5 Receptors Cytosolic Calcium Studies with Stably Transfected Cells
Chinese hamster ovary cells (CHO-K1 cells), stably transfected for inducible expression of a human metabotropic glutamate receptor mGluR5, are seeded into black clear bottom 96 well plates at a density of 35.000 cells per well. The standard growth medium used (Dulbecco's modified Eagle Medium, DMEM plus L-proline) contains the appropriate inducer isopropyl-β-D-thiogalactopyranosid (IPTG) to achieve optimal receptor expression. One day after seeding the growth medium is exchanged for reconstituted Ca-Kit (Molecular Devices, USA) and incubated for one hour. Ca-Kit is reconstituted in an assay buffer containing 20 mM HEPES pH 7.4, glutamic-pyruvate transaminase, pyridoxal phosphate and sodium pyruvate in Hank's balanced salt solution (HBBS). Agonistic compounds to the receptor elicit increases in cytosolic calcium which can be measured as increases in fluorescence signals by use of a fluorescence imaging plate reader (Molecular Devices). […] Similarly, for the characterization of positive allosteric modulators, a dilution series of the test compound is added online to 384 well plates containing the described dye loaded cells and after a preincubation time of 5 minutes stimulated by a basal cell concentration of the agonist L-glutamate giving about 20% of the maximal signal.
as §1, §2

T2 sequence (P31424 21-1203): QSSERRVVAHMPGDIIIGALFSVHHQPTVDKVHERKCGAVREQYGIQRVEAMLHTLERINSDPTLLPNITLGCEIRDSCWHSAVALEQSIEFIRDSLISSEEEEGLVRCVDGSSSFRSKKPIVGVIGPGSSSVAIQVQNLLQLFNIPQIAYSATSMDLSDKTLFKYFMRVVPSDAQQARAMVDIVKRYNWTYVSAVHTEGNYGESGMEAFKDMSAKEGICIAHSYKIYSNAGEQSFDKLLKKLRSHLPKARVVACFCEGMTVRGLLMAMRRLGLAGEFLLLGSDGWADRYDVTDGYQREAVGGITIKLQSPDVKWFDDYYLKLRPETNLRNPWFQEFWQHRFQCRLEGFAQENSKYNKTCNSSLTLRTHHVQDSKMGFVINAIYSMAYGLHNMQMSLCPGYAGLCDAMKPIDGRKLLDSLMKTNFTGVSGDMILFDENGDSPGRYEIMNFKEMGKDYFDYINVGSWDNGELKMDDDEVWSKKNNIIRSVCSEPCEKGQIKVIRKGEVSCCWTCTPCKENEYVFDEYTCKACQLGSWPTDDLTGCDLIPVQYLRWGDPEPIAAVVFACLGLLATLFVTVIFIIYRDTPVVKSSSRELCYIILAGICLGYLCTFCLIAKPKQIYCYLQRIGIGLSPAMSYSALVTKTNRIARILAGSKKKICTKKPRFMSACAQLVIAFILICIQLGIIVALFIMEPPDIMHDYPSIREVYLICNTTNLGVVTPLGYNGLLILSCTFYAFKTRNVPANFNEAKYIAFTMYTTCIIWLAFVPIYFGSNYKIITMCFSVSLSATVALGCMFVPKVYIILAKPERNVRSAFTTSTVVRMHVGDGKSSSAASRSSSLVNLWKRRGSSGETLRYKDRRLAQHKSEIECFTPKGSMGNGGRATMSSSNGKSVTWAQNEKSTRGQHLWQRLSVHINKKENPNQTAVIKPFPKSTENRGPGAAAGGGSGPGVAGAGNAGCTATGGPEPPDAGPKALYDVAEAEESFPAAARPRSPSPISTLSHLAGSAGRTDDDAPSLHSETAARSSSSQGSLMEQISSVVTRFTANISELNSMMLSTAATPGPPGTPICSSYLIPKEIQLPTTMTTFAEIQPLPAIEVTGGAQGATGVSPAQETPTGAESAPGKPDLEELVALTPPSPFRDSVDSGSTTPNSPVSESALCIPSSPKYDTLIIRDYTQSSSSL
T3 sequence (P41594 21-1212): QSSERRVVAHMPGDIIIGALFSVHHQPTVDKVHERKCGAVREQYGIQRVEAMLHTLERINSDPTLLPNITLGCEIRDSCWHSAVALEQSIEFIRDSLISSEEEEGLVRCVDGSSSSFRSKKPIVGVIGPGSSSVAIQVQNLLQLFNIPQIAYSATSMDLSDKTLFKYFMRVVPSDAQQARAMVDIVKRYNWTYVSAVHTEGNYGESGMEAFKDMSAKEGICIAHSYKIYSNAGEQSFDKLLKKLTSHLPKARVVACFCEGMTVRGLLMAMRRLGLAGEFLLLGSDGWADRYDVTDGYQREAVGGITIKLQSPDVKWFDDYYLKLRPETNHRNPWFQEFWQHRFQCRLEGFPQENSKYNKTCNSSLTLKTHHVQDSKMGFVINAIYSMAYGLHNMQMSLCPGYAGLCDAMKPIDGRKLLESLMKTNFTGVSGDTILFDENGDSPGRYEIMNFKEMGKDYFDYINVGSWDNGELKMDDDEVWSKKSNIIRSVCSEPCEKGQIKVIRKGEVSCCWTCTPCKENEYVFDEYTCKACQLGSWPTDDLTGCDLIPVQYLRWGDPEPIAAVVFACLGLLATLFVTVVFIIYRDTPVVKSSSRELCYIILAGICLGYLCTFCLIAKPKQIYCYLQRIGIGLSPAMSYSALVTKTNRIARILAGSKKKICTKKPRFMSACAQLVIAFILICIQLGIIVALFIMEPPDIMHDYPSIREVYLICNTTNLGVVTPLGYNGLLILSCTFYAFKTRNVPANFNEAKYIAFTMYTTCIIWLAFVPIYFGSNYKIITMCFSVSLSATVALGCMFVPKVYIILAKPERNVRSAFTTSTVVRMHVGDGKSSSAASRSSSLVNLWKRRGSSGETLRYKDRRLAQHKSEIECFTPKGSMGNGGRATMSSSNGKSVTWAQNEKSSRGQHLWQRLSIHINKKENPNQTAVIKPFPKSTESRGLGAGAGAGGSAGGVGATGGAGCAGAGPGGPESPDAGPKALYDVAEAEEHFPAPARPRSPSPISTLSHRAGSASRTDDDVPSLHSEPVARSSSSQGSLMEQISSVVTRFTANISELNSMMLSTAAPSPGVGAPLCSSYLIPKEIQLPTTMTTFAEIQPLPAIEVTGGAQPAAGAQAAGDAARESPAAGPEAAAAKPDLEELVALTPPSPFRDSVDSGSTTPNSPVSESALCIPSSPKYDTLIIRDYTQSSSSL

Structure (SMILES) | IC50 [1] [nM] | EC50 [2] [nM] | EC50 [3] [nM]
Fc1cccc(C#Cc2cnc3ncnn3c2)c1 [Example 47, 6-(3-Fluoro-phenylethynyl)-[1,2,4]triazolo[1,5-a]pyrimidine] | – | 1500 | 1300
Fc1ccc(C#Cc2cnc3ncsc3c2)cc1 [Example 46, 6-(4-Fluoro-phenylethynyl)-thiazolo[4,5-b]pyridine] | 540 | 91 | 58
Fc1cccc(C#Cc2cnc3ncsc3c2)c1 [Example 44, 6-(3-Fluoro-phenylethynyl)-thiazolo[4,5-b]pyridine] | – | 37 | 23
C(#Cc1cnc2ccnn2c1)C1=CCSCC1 [Example 10, 6-(3,6-Dihydro-2H-thiopyran-4-ylethynyl)-pyrazolo[1,5-a]pyrimidine] | – | 50 | 110
Fc1ccc(C#Cc2ccc3ncnn3c2)cc1 [Example 55, 6-(4-Fluoro-phenylethynyl)-[1,2,4]triazolo[1,5-a]pyridine] | – | 400 | 640
O=C(c1cc2ccc(C#Cc3ccccc3)cn2n1)N1CCCCC1 [Example 32, (6-Phenylethynyl-pyrazolo[1,5-a]pyridin-2-yl)-piperidin-1-yl-methanone] | – | 480 | 250
Fc1ccc(C#Cc2cnc3ncsc3c2)c(F)c1 [Example 79, 6-((2,4-Difluorophenyl)ethynyl)thiazolo[4,5-b]pyridine] | – | 220 | 310
Cc1cccc(C#Cc2cnc3ncsc3c2)c1 [Example 73, 6-(m-Tolylethynyl)thiazolo[4,5-b]pyridine] | – | 14 | 20
Fc1ccc(C#Cc2cnc3ccnn3c2)cc1 [Example 4, 6-(4-Fluoro-phenylethynyl)-pyrazolo[1,5-a]pyrimidine] | – | 63 | 120
C(#Cc1cnc2nccnc2c1)C1=CCCCC1 [Example 40, 7-Cyclohex-1-enylethynyl-pyrido[2,3-b]pyrazine] | – | 650 | 120
C(#Cc1cnc2ccnn2c1)C1=CCCCC1 [Example 8, 6-Cyclohex-1-enylethynyl-pyrazolo[1,5-a]pyrimidine] | – | 70 | 23
C(#Cc1cnc2ncnn2c1)c1ccccc1 [Example 33, 6-Phenylethynyl-[1,2,4]triazolo[1,5-a]pyrimidine] | – | 230 | 130
C(#Cc1cnc2nc(N3CCCCC3)sc2c1)c1ccccc1 [Example 81, 6-Phenylethynyl-2-piperidin-1-yl-thiazolo[4,5-b]pyridine] | 520 | – | 91
O=C(c1nc2ncc(C#CC3=CCCCC3)cc2o1)N1CCCCC1 [Example 72, (6-Cyclohex-1-enylethynyl-oxazolo[4,5-b]pyridin-2-yl)-piperidin-1-yl-methanone] | – | 320 | 330

Further lines, results first:

IC50 [1] [nM] | EC50 [2] [nM] | EC50 [3] [nM] | Structure (SMILES)
37 | 190 | 300 | Fc1ccccc1C#Cc1cnc2nccnc2c1 [Example 61, 7-(2-Fluoro-phenylethynyl)-pyrido[2,3-b]pyrazine]
– | 24 | 19 | Fc1ccccc1C#Cc1cnc2cccnc2c1 [Example 68, 3-(2-Fluoro-phenylethynyl)-[1,5]naphthyridine]
– | 2.3 | 5.5 | Cc1cccc(C#Cc2cnc3cccnc3c2)c1 [Example 95, 3-(m-Tolylethynyl)-[1,5]naphthyridine]
– | 73 | 10 | C(#Cc1cnc2ncsc2c1)c1ccccc1 [Example 38, 6-Phenylethynyl-thiazolo[4,5-b]pyridine]
– | 12 | 9.8 | Fc1ccc(C#Cc2cnc3cccnc3c2)cc1 [Example 69, 3-(4-Fluoro-phenylethynyl)-[1,5]naphthyridine]
– | 310 | 230 | C(#Cc1cnc2cccnc2c1)c1ccncc1 [Example 100, 3-(Pyridin-4-ylethynyl)-1,5-naphthyridine]
– | 89 | 38 | C(#Cc1cnc2ccnn2c1)c1ccccc1 [Example 1, 6-Phenylethynyl-pyrazolo[1,5-a]pyrimidine]
– | 76 | 21 | Fc1cccc(C#Cc2cnc3ccnn3c2)c1 [Example 3, 6-(3-Fluoro-phenylethynyl)-pyrazolo[1,5-a]pyrimidine]
– | 110 | 110 | C(#Cc1ccc2ncnn2c1)c1ccccc1 [Example 37, 6-Phenylethynyl-[1,2,4]triazolo[1,5-a]pyridine]
– | 730 | 550 | Fc1ccc(C#Cc2cnc3nccnc3c2)cc1 [Example 62, 7-(4-Fluoro-phenylethynyl)-pyrido[2,3-b]pyrazine]
– | 77 | 36 | Cc1ccc(C#Cc2cnc3cccnc3c2)cc1 [Example 93, 3-(p-Tolylethynyl)-[1,5]naphthyridine]
89 | 54 | 100 | Fc1cccc(C#Cc2cnc3nccnc3c2)c1 [Example 60, 7-(3-Fluoro-phenylethynyl)-pyrido[2,3-b]pyrazine]
– | 56 | 65 | Fc1ccccc1C#Cc1cnc2ncsc2c1 [Example 45, 6-(2-Fluoro-phenylethynyl)-thiazolo[4,5-b]pyridine]
– | 530 | 2300 | Cc1ccccc1C#Cc1cnc2ncsc2c1 [Example 75, 6-(o-Tolylethynyl)thiazolo[4,5-b]pyridine]
– | 100 | 35 | C(#Cc1cnc2nccnc2c1)c1ccccc1 [Example 39, 7-Phenylethynyl-pyrido[2,3-b]pyrazine]
– | 8.6 | 6.8 | Fc1cccc(C#Cc2cnc3cccnc3c2)c1 [Example 67, 3-(3-Fluoro-phenylethynyl)-[1,5]naphthyridine]
